Laboratory results published in PubChem BioAssay AID2060886 (Molecular Pharmacology Branch, DTP, NCI, 2025).
Values joined by “and” are separate entries in the source; they are usually repeats but may differ in a detail not shown here. Equal values may be shown once.

Tested on: 653999-131-R-J2-PDC complex spheroids, growth inhibition
Test: Anticancer human tumor 653999-131-R-J2-PDC patient-derived lung adenocarcinoma cell line growth inhibition [RAS]
Settings: for viability, T/C: stronger effect = lower value; active = viability on the fitted dose curve at most 10% of control; inactive = the rest
In short: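 Agents were tested in combination matrices in half-log decrements from a top concentration at or near clinical Cmax (10 microM if undetermined). Targets were multi-cell spheroids of tumour lines plus HUVEC and MSC stromal cells.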

[1] = curve of first compound, second compound 0.000949 µM
[2] = curve of first compound, second compound 0.003 µM
[3] = curve of first compound, second compound 0.00949 µM
[4] = curve of first compound, second compound 0.03 µM
[5] = curve of first compound, second compound 0.0949 µM
[6] = curve of first compound, second compound 0.3 µM
[7] = second compound 0.000949 µM, first compound 0.0316 µM
[8] = second compound 0.000949 µM, first compound 0.1 µM
[9] = second compound 0.000949 µM, first compound 0.316 µM
[10] = second compound 0.000949 µM, first compound 1 µM
[11] = second compound 0.000949 µM, first compound 3.16 µM
[12] = second compound 0.000949 µM, first compound 10 µM
[13] = second compound 0.003 µM, first compound 0.0316 µM
[14] = second compound 0.003 µM, first compound 0.1 µM
[15] = second compound 0.003 µM, first compound 0.316 µM
[16] = second compound 0.003 µM, first compound 1 µM
[17] = second compound 0.003 µM, first compound 3.16 µM
[18] = second compound 0.003 µM, first compound 10 µM
[19] = second compound 0.00949 µM, first compound 0.0316 µM
[20] = second compound 0.00949 µM, first compound 0.1 µM
[21] = second compound 0.00949 µM, first compound 0.316 µM
[22] = second compound 0.00949 µM, first compound 1 µM
[23] = second compound 0.00949 µM, first compound 3.16 µM
[24] = second compound 0.00949 µM, first compound 10 µM
[25] = second compound 0.03 µM, first compound 0.0316 µM
[26] = second compound 0.03 µM, first compound 0.1 µM
[27] = second compound 0.03 µM, first compound 0.316 µM
[28] = second compound 0.03 µM, first compound 1 µM
[29] = second compound 0.03 µM, first compound 3.16 µM
[30] = second compound 0.03 µM, first compound 10 µM
[31] = second compound 0.0949 µM, first compound 0.0316 µM
[32] = second compound 0.0949 µM, first compound 0.1 µM
[33] = second compound 0.0949 µM, first compound 0.316 µM
[34] = second compound 0.0949 µM, first compound 1 µM
[35] = second compound 0.0949 µM, first compound 3.16 µM
[36] = second compound 0.0949 µM, first compound 10 µM
[37] = second compound 0.3 µM, first compound 0.0316 µM
[38] = second compound 0.3 µM, first compound 0.1 µM
[39] = second compound 0.3 µM, first compound 0.316 µM
[40] = second compound 0.3 µM, first compound 1 µM
[41] = second compound 0.3 µM, first compound 3.16 µM
[42] = second compound 0.3 µM, first compound 10 µM
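Note: spheroids exposed to the agents for seven days before the readout.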

CCC(CC)c1cc(NC2CCC(N)C2)n2nccc2n1 (stereo unspecified) + CCn1c(-c2cc(N3CCN(C)CC3)cnc2C(C)OC)c2c3cc(ccc31)-c1csc(n1)CC(NC(=O)C1CC1C)C(=O)N1CCCC(N1)C(=O)OCC(C)(C)C2
1280 nM: IC50 [1]
722 nM: IC50 [2]
inactive: viability, T/C [7] 84.6% | viability, T/C [8] 101% | viability, T/C [9] 91.2% | viability, T/C [10] 59.9% | viability, T/C [11] 12% | viability, T/C [12] 15% | viability, T/C [13] 59.1% | viability, T/C [14] 88.6% | viability, T/C [15] 84.2% | viability, T/C [16] 39.2% | viability, T/C [17] 10.5% | viability, T/C [18] 18.8% | viability, T/C [19] 55.8% | viability, T/C [20] 56.5% | viability, T/C [21] 45.6% | viability, T/C [22] 26.4% | viability, T/C [23] 16.4% | viability, T/C [24] 17.4% | viability, T/C [25] 38.8% | viability, T/C [26] 51% | viability, T/C [27] 29.6% | viability, T/C [28] 20.4% | viability, T/C [29] 12.5% | viability, T/C [30] 18.8% | viability, T/C [31] 29.3% | viability, T/C [32] 27.8% | viability, T/C [33] 28.9% | viability, T/C [34] 12.1% | viability, T/C [35] 11.7% | viability, T/C [36] 18.9% | viability, T/C [37] 29.8% | viability, T/C [38] 24.9% | viability, T/C [39] 26.4% | viability, T/C [40] 12.7% | viability, T/C [41] 13.3% | viability, T/C [42] 17.5%
< 31.6 nM: IC50 [4] | IC50 [5] | IC50 [6]
195 nM: IC50 [3]

C=CC(=O)Nc1cc(Nc2nccc(-c3cn(C)c4ccccc34)n2)c(OC)cc1N(C)CCN(C)C
> 1000 nM and 291 nM: IC50 (curve of compound)
inactive: viability, T/C (compound 0.00316 µM) 98% [middle of 4 runs] | viability, T/C (compound 0.01 µM) 89.8% [middle of 4 runs] | viability, T/C (compound 0.0316 µM) 94.7% [middle of 4 runs] | viability, T/C (compound 1 µM) 62.9% [middle of 4 runs]

CCC(CC)c1cc(NC2CCC(N)C2)n2nccc2n1 (stereo unspecified) + CCn1c(-c2cccnc2C(C)OC)c2c3cc(ccc31)N1CCOC(CC(NC(=O)C(C(C)C)N(C)C(=O)C3(F)CCN(C(=O)C#CC(C)(C)N(C)C)CC3)C(=O)N3CCCC(N3)C(=O)OCC(C)(C)C2)C1
1910 nM: IC50 [6]
1980 nM: IC50 [2]
1840 nM: IC50 [5]
inactive: viability, T/C [7] 101% | viability, T/C [8] 99.6% | viability, T/C [9] 102% | viability, T/C [10] 98.6% | viability, T/C [11] 15% | viability, T/C [12] 22.1% | viability, T/C [13] 111% | viability, T/C [14] 107% | viability, T/C [15] 106% | viability, T/C [16] 95.9% | viability, T/C [17] 17.7% | viability, T/C [18] 18.7% | viability, T/C [19] 102% | viability, T/C [20] 114% | viability, T/C [21] 106% | viability, T/C [22] 93% | viability, T/C [23] 14.4% | viability, T/C [24] 22.5% | viability, T/C [25] 96% | viability, T/C [26] 107% | viability, T/C [27] 114% | viability, T/C [28] 112% | viability, T/C [29] 17% | viability, T/C [30] 19.1% | viability, T/C [31] 97.5% | viability, T/C [32] 115% | viability, T/C [33] 121% | viability, T/C [34] 88.5% | viability, T/C [35] 12% | viability, T/C [36] 20% | viability, T/C [37] 92.1% | viability, T/C [38] 97.6% | viability, T/C [39] 108% | viability, T/C [40] 92.1% | viability, T/C [41] 13.7% | viability, T/C [42] 20.5%
2090 nM: IC50 [4]
1940 nM: IC50 [3]
2010 nM: IC50 [1]

C=CC(=O)Nc1cc(Nc2nccc(-c3cn(C)c4ccccc34)n2)c(OC)cc1N(C)CCN(C)C + CCn1c(-c2cccnc2C(C)OC)c2c3cc(ccc31)N1CCOC(CC(NC(=O)C(C(C)C)N(C)C(=O)C3(F)CCN(C(=O)C#CC(C)(C)N(C)C)CC3)C(=O)N3CCCC(N3)C(=O)OCC(C)(C)C2)C1
697 nM: IC50 [6]
> 1000 nM: IC50 [1]
717 nM: IC50 [5]
562 nM: IC50 [3]
inactive: viability, T/C (second compound 0.000949 µM, first compound 0.00316 µM) 86.2% | viability, T/C (second compound 0.000949 µM, first compound 0.01 µM) 82.3% | viability, T/C [7] 97.7% | viability, T/C [8] 64.7% | viability, T/C [9] 64.2% | viability, T/C [10] 49.2% | viability, T/C (second compound 0.003 µM, first compound 0.00316 µM) 90.1% | viability, T/C (second compound 0.003 µM, first compound 0.01 µM) 95.8% | viability, T/C [13] 86.3% | viability, T/C [14] 67.1% | viability, T/C [15] 52.5% | viability, T/C [16] 37.8% | viability, T/C (second compound 0.00949 µM, first compound 0.00316 µM) 80.5% | viability, T/C (second compound 0.00949 µM, first compound 0.01 µM) 84.8% | viability, T/C [19] 93.2% | viability, T/C [20] 85.7% | viability, T/C [21] 55% | viability, T/C [22] 45% | viability, T/C (second compound 0.03 µM, first compound 0.00316 µM) 87.1% | viability, T/C (second compound 0.03 µM, first compound 0.01 µM) 97.6% | viability, T/C [25] 84.2% | viability, T/C [26] 82.5% | viability, T/C [27] 52.6% | viability, T/C [28] 43.6% | viability, T/C (second compound 0.0949 µM, first compound 0.00316 µM) 79.4% | viability, T/C (second compound 0.0949 µM, first compound 0.01 µM) 76.5% | viability, T/C [31] 115% | viability, T/C [32] 89.8% | viability, T/C [33] 59.6% | viability, T/C [34] 46.1% | viability, T/C (second compound 0.3 µM, first compound 0.00316 µM) 78.7% | viability, T/C (second compound 0.3 µM, first compound 0.01 µM) 104% | viability, T/C [37] 94.8% | viability, T/C [38] 94.1% | viability, T/C [39] 61.7% | viability, T/C [40] 44.6%
450 nM: IC50 [4]
318 nM: IC50 [2]
